For test [1], the target named is T1, Tubulin (Bos taurus, UniProt Q6B856+Q862F3). The test is described as follows: Inhibition of polymerization of purified bovine tubulin. The test is classed as functional.
A further test deals with Cell line. The test is described as follows: Tested for cytotoxicities and mean graph midpoint (MGM) for growth inhibition of all 55 human cell lines. The test is classed as functional.
In test [2] the target is T1, Tubulin. The test is described as follows: Effective concentration for enhancement of tubulin assembly rate was determined. Format: functional.
In test [3] the target is T2, Tubulin (Bos taurus) (UniProt Q6B856+Q862L2+Q862F3). The test is described as follows: Compound was evaluated for inhibition of colchicine binding to tubulin in experiment I. Format: protein assay. The following applies: concentration not given here.
Test [4] has as its target T2, Tubulin (Bos taurus). The test is described as follows: Compound was evaluated for inhibition of colchicine binding to tubulin in experiment II. Format: protein assay. The following applies: concentration not given here.

Consider 23 compounds from ChEMBL document CHEMBL1132943, “Synthesis of B-ring homologated estradiol analogues that modulate tubulin polymerization and microtubule stability” (J Med Chem, 2000).

A value given as a limit tells only on which side of the number the result lay.

T1 sequence (Q6B856 whole entry): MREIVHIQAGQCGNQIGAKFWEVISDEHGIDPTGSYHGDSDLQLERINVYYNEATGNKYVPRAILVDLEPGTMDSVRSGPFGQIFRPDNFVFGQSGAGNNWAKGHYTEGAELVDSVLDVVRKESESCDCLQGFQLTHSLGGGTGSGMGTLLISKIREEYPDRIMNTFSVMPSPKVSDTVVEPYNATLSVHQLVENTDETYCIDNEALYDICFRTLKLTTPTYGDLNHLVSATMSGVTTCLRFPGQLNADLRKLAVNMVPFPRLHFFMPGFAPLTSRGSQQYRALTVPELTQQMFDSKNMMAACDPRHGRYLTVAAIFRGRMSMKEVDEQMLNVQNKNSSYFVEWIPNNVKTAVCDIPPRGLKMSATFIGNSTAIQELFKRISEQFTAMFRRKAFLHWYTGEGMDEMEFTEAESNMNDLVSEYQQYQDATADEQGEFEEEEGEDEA
T1 sequence (Q862F3 whole entry): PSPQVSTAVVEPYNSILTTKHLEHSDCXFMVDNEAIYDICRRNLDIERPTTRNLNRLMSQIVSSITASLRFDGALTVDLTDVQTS

One may read the IC50 as the point on the concentration scale where inhibition reaches its midpoint. Take `CCOc1cc2c(cc1O)C(=O)CCC1C2CC[C@@]2(C)C1CC[C@@H]2O` (some centres undefined): the IC50 against Tubulin [1] came to 130 µM. Further, in the test with Cell line, the MGM is 14.4 µM.
What is called EC50 is the concentration giving half of the maximal effect. For `CCOc1cc2c(cc1OC(C)=O)CC(=O)CC1C2CC[C@@]2(C)C1CC[C@@H]2OC(C)=O` (some centres undefined), the EC50 at Tubulin [2] was > 400 µM.
As usually defined, the inhibition is the share of the control response that was lost under treatment. A higher inhibition goes with a strong effect. On Tubulin [1], `CCOc1cc2c(cc1O)C(=O)C[C@@H]1[C@@H]2CC[C@]2(C)[C@@H](O)CC[C@@H]12` returned an IC50 of 3 µM. In the test with Cell line, this compound showed an MGM of 0.13 µM. This compound came in with an inhibition on Tubulin (Bos taurus) [3] of 19%.
At Tubulin [1], `CCOc1cc2c(cc1O)C=CCC1C2CC[C@@]2(C)C1CC[C@@H]2O` (some centres undefined) came in with a 50% inhibitory concentration (IC50) of 0.85 µM. Moreover, the MGM with Cell line was found to be 1.32 µM.
Compound `CCOc1cc2c(cc1O)CC(=O)CC1C2CC[C@@]2(C)C1CC[C@@H]2O` (some centres undefined) gave an IC50 against Tubulin [1] of 8.1 µM. For the same compound, the MGM in the test with Cell line is 11.5 µM.
For the compound `CCOc1cc2c(cc1O)[C@H](NC(C)=O)CC[C@H]1C3CC[C@H](O)[C@@]3(C)CC[C@H]21` (some centres undefined), on Tubulin [2], the EC50 is > 200 µM. This compound gave an MGM in the test on Cell line of 90.4 µM.
As to `CCOc1cc2c(cc1O)/C(=N/O)CCC1C2CC[C@@]2(C)C1CC[C@@H]2O` (some centres undefined), the IC50 against Tubulin [1] amounted to 57 µM. Besides, the MGM in the test on Cell line turned out to be 51.3 µM.
`CCOc1cc2c(cc1OC(C)=O)C(=O)C[C@@H]1[C@@H]2CC[C@]2(C)[C@@H](OC(C)=O)CC[C@@H]12`: the EC50 at Tubulin [2] is > 400 µM.
With `CCOc1cc2c(cc1O)/C(=N\OC)C[C@@H]1[C@@H]2CC[C@]2(C)[C@@H](O)CC[C@@H]12`, the MGM with Cell line is 0.27 µM.
On Tubulin [1], `COc1cc2c(cc1O)CC[C@@H]1[C@@H]2CC[C@]2(C)[C@@H](O)CC[C@@H]12` [2-METHOXYESTRADIOL] displayed an IC50 of 1.4 µM. In the test with Cell line, this compound showed an MGM of 1.3 µM. For the same compound, the inhibition on Tubulin (Bos taurus) [4] was found to be 60%; on Tubulin (Bos taurus) [3], 19%.
In the case of `CC(=O)O[C@H]1C(=O)[C@@]2(C)[C@H]([C@H](OC(=O)c3ccccc3)[C@]3(O)C[C@H](OC(=O)[C@H](O)[C@@H](NC(=O)c4ccccc4)c4ccccc4)C(C)=C1C3(C)C)[C@]1(OC(C)=O)CO[C@@H]1C[C@@H]2O` [PACLITAXEL], at Tubulin [2], the EC50 was determined as 0.83 µM.
With `CCOc1cc2c(cc1O)CC[C@@H]1[C@@H]2CC[C@]2(C)[C@@H](O)CC[C@@H]12`, the IC50 against Tubulin [1] is 0.66 µM. In addition, the MGM in the test with Cell line stood at 0.076 µM. In addition, the inhibition at Tubulin (Bos taurus) [4] was determined as 87%; on Tubulin (Bos taurus) [3], 51%.
Take `CCOc1cc2c(cc1OC(C)=O)C(=O)CCC1C2CC[C@@]2(C)C1CC[C@@H]2O` (some centres undefined): the EC50 on Tubulin [2] came to 360 µM.
In the test with Cell line, `CCOc1cc2c(cc1O)/C(=N\O)C[C@@H]1[C@@H]2CC[C@]2(C)[C@@H](O)CC[C@@H]12` gave an MGM of 0.079 µM.
For `CCOc1cc2c(cc1O)C(=O)CCC1C2CC[C@@]2(C)C1CC[C@@H]2OC(C)=O` (some centres undefined), the EC50 at Tubulin [2] amounted to 8.2 µM.
On to `CCOc1cc2c(cc1O)C/C(=N\O)CC1C2CC[C@@]2(C)C1CC[C@@H]2O` (some centres undefined), for which, at Tubulin [1], the IC50 came out at 99 µM. Further, the MGM with Cell line is 42.7 µM.
`CCOc1cc2c(cc1OC(C)=O)/C(=N/OC)CCC1C2CC[C@@]2(C)C1CC[C@@H]2OC(C)=O` (some centres undefined): the EC50 at Tubulin [2] is > 200 µM.
Consider `CCOc1cc2c(cc1O)CCCC1C2CC[C@@]2(C)C1CC[C@@H]2O` (some centres undefined), for which the IC50 against Tubulin [1] came out at 0.97 µM. This compound also showed an MGM with Cell line of 2.48 µM. Besides, the inhibition on Tubulin (Bos taurus) [3] is 56%.
In the case of `CCOc1cc2c(cc1OC(C)=O)CCCC1C2CC[C@@]2(C)C1CC[C@@H]2OC(C)=O` (some centres undefined), the IC50 against Tubulin [1] was > 400 µM. This compound registered an MGM in the test on Cell line of 14.5 µM.
On the same counts, the results for `CCOc1cc2c(cc1OC(C)=O)C(=O)CCC1C2CC[C@@]2(C)C1CC[C@@H]2OC(C)=O` (some centres undefined) are 5.5 µM and >100 µM.
Compound `CCOc1cc2c(cc1O)[C@@H](NC(C)=O)CCC1C2CC[C@@]2(C)C1CC[C@@H]2O` (some centres undefined) gave an IC50 at Tubulin [1] of 6.9 µM. This compound registered an MGM with Cell line of 7 µM.
For the compound `CCOc1cc2c(cc1O)C/C(=N\NS(=O)(=O)c1ccc(C)cc1)CC1C2CC[C@@]2(C)C1CC[C@@H]2O` (some centres undefined), the midpoint of inhibition at Tubulin [1], the IC50, lay at 80 µM. In the test on Cell line, this compound displayed an MGM of 15.5 µM.
Consider `CCOc1cc2c(cc1O)/C(=N/OC)CCC1C2CC[C@@]2(C)C1CC[C@@H]2O` (some centres undefined), for which the IC50 against Tubulin [1] was found to be 30 µM. This compound also registered an MGM in the test on Cell line of 24 µM.
